# Experiments:
# AsqJ [1] = target: T1, AsqJ (Aspergillus nidulans, UniProt Q5AR53); experiment: X-ray crystal structure; type: binding; details: Fe, 2OG; formed in crystal from 1-H with 1 mM ascorbate and O2, 1.63 Å
# AsqJ [2] = target: T1, AsqJ; experiment: EPR titration of Mn2+-loaded AsqJ; type: binding
# T1 sequence (Q5AR53 109-416): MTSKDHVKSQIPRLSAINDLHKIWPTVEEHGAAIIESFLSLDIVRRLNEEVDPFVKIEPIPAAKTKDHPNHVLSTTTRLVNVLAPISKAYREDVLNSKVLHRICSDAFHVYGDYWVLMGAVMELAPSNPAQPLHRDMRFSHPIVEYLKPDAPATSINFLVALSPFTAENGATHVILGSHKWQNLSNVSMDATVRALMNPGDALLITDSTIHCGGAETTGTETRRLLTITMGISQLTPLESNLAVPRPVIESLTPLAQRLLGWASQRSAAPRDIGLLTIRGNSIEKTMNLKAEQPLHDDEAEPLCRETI
Structure (SMILES),X-ray crystal structure (AsqJ [1]),Kd (AsqJ [2]) [µM]
"CN1C(=O)c2ccccc2NC(=O)[C@@]12O[C@H]2c1ccccc1 [3-H, cyclopenin]","revealed the presence of 3-H, and 2OG in the active site",–
CN1C(=O)c2ccccc2NC(=O)/C1=C/c1ccc(C(F)(F)F)cc1 [2-CF3],–,~5

# Reference: paper PMC7343540 (Journal of the American Chemical Society, 2020)
